Broadly, the Ki is a dissociation constant, usually derived from enzyme kinetics or from competition with a known ligand. Usually Km stands for the concentration of substrate that gives half-maximal velocity.

The values below come from patent publication EP3403653A1, “COMPOUNDS FOR USE IN TREATING BIPOLAR AND RELATED DISORDERS” (Centre National de la Recherche Scientifique (CNRS), priority 2017, dated 2018).

Assay [1] concerns the target T1, NHE7 (Homo sapiens, UniProt Q96T83).
T1 construct: expressed in transfected cells
T1 sequence (Q96T83 1-725): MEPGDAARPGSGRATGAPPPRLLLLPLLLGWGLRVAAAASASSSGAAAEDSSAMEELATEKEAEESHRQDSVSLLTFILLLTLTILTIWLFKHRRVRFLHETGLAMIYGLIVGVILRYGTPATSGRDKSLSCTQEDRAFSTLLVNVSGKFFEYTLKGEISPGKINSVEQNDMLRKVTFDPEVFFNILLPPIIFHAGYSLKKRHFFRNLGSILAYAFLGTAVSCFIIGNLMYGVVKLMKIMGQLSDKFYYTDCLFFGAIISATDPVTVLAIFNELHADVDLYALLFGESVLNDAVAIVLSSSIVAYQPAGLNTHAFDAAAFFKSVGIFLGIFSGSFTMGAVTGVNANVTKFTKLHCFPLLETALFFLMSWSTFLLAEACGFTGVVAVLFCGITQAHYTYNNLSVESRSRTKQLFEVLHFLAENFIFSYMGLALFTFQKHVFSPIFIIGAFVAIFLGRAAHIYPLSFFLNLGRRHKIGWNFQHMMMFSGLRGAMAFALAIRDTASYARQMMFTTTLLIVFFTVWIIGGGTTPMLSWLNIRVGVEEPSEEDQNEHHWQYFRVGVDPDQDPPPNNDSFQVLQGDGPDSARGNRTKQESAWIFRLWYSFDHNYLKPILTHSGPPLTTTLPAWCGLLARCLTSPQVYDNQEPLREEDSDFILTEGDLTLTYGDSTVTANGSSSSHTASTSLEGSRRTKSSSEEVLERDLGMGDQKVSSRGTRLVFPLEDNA
Description: Lithium uptake in PM-NHE7 cells (atomic absorption spectroscopy), dose-response of inhibitors. It is filed as cell-based. The conditions noted are these: for Ki: calculated from dose-response curves of lithium uptake, 3 to 10 mM LiCl, initial velocity conditions; for affinity to NHE7 / selectivity of affinity NHE7 compare to NHE1: statement in words; for affinity to NHE7: from dose-response curves (figure 1) and table 1; for selectivity of affinity NHE7 compare to NHE1: from table 1. As to the method: The PM-NHE7 cells selected for NHE7 expression at the plasma membrane (Milosavljevic N, Monet M, Léna I, Brau F, Lacas-Gervais S, Feliciangeli S, Counillon L, Poet M., The intracellular Na(+)/H(+) exchanger NHE7 effects a Na(+)-coupled, but not K(+)-coupled proton-loading mechanism in endocytosis. Cell rep. 7, 1-8, May 8, 2014, 689-696) were seeded to confluence on 24-well plates and incubated for 60 minutes at 37°C in a medium containing 50 mM NH4Cl , 70mM Choline Chloride, 2 mM CaCl2, 1 mM MgCl2, 5 mM glucose, 15 mM Hepes (pH 7.4). The cells were then rinsed twice in less than 15 seconds with 120 mM choline chloride buffered to pH 7.4 with 15 mM Tris, 1 mM MgCl2, 2 mM CaCl2. The uptake of lithium was then started by adding the same medium containing 3 to 10 mM LiCl and the various inhibitor concentrations. Under these conditions, Lithium uptake is linear. All dose-response curves for the inhibitors tested in this study were therefore measured under initial velocity conditions in which equation (1) applies. At the end of the uptake time the cells were rinsed rapidly (4 rinses in less than 10 seconds) in PBS at 4° C. 250µl of 25% nitric acid were added per well. The cell contents were then transferred into eppendorf tubes. The tubes were centrifuged for 5 min at 13000 rpm at room temperature. The supernatant is used to measure the activity of NHE7 (or NHE1 in control) by measuring intracellular the Li^+ concentrations (which are due to NHE7 transport) by atomic absorption spectroscopy. (Thermo ICE 3000 Series AA Spectrometer). Data obtained from the uptake measurements were used to plot the dose responses curves i.e. the % of maximal lithium uptake as a function of the inhibitors concentrations (Log scale, figure 1).
Because acylguanidines are competitive inhibitors of NHE7, the dose response curves of different concentrations of inhibitors on the rate of transport are given by equation (1) below: V = Vmax[Li^(*)]/(Kmapp+[Li^+]); With Kmapp = Km(1 + [I]/Ki] [formula] • where [I] is the inhibitor concentration, • Vmax is the maximum speed of the exchanger, expressed in (100)% in the dose response curves, • Km is the value of the Michaelis constant for Lithium (see Milosavljevic et al., Cell rep. 7, 1-8, May 8, 2014, 689-696 for NHE7) • Ki the dissociation constant for the inhibitor under consideration.
It is simple to obtain a linear equation by plotting the Maximal rate (w/o inhibitor) versus the rates in the presence of inhibitor, as a function of the inhibitor concentration. The slope is then proportional to 1/Ki. Table 1: Ki of the tested inhibitors

Assay [2] has as its target NHE1 (Homo sapiens, UniProt P19634). Description: Lithium uptake measurement, NHE1 control. The following applies: for Ki: calculated from dose-response curves of lithium uptake; for Km: Michaelis constant of the cation for the exchanger. The class given is cell-based. The procedure:
The uptake of lithium was then started by adding the same medium containing 3 to 10 mM LiCl and the various inhibitor concentrations. […] At the end of the uptake time the cells were rinsed rapidly (4 rinses in less than 10 seconds) in PBS at 4° C. 250µl of 25% nitric acid were added per well. The cell contents were then transferred into eppendorf tubes. The tubes were centrifuged for 5 min at 13000 rpm at room temperature. The supernatant is used to measure the activity of NHE7 (or NHE1 in control) by measuring intracellular the Li^+ concentrations (which are due to NHE7 transport) by atomic absorption spectroscopy. (Thermo ICE 3000 Series AA Spectrometer). Data obtained from the uptake measurements were used to plot the dose responses curves i.e. the % of maximal lithium uptake as a function of the inhibitors concentrations (Log scale, figure 1).
It is simple to obtain a linear equation by plotting the Maximal rate (w/o inhibitor) versus the rates in the presence of inhibitor, as a function of the inhibitor concentration. […] Table 1: Ki of the tested inhibitors

Assay [3] deals with T1, NHE7. The following applies: Michaelis constant of the cation for the exchanger; cited from earlier work.
Assay [4] concerns WT NHE7 transfected cells. As to the kind of experiment: Endocytosis kinetics: Alexa 555 transferrin uptake in cells expressing NHE7 in intracellular compartments. It is filed as cell-based. The conditions noted are these: different concentrations of zoniporide, five minutes of incubation, figure 2. The procedure:
[…] Alexa 555 transferrin (Invitrogen) was bound for various times at 37°C on WT NHE7 transfected cells (that express NHE7 specifically in intracellular compartments) in control conditions or in the presence of zoniporide at the defined concentrations. After five minutes of incubation, the coverslips were rapidly rinsed in ice-cold PBS and the cells were fixed in ice-cold 4% PFA and then permeabilized with 2% saponin. The nuclei were then stained with DAPI. These different steps rinse the transferrin, which has not been internalized, and stop intracellular traffic. This makes it possible to visualize the endocytosis at different times. The coverslips were then mounted and photographed for image analysis and quantification. […] Endocytosis was quantified as the normalized fluorescence accumulation in intracellular clusters as a function of time using a home-made macro (Mica Imaging platform, Nice) on Image J NIH ImageJ (Schneider, C. A.; Rasband, W. S. & Eliceiri, K. W. (2012), "NIH Image to ImageJ: 25 years of image analysis", Nature methods 9(7): 671-675). […] Then, all the clusters of red pixels (Alexa transferrin 555) with a density, a shape and a surface defined by the macro (and parameterizable by the user) are quantified inside each mask. […]

Chain of NHE1 (P19634 whole entry, species assumed): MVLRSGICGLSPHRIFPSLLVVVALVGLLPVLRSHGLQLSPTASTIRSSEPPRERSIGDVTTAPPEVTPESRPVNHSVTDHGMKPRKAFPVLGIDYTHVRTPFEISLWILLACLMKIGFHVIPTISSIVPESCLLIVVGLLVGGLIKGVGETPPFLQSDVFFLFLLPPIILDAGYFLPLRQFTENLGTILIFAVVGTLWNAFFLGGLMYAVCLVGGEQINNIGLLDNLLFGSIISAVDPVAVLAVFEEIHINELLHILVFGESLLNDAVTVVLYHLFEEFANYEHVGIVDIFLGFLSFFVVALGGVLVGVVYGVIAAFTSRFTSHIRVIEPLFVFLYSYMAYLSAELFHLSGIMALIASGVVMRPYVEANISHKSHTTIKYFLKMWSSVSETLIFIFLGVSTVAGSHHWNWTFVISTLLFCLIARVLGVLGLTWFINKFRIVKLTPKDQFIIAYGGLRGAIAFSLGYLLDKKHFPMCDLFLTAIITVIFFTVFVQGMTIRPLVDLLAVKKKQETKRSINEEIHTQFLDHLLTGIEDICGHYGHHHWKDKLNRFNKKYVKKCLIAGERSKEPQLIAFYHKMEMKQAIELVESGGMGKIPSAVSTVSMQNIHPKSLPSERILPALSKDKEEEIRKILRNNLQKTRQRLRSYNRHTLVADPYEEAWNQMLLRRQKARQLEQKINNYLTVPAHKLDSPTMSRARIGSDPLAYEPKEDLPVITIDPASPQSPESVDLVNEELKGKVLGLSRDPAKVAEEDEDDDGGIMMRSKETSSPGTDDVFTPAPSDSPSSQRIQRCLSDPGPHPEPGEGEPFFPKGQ

Take `N=C(N)NC(=O)c1nc(Cl)c(N)nc1N` [Amiloride, amiloride]: the Ki in assay [1] is 1640 nM.

As to `CC(C)c1ccc(C(=O)NC(=N)N)cc1S(C)(=O)=O` [Cariporide, cariporide], the inhibition constant (Ki) in assay [2] was 40 nM; in assay [1] it was 20 nM.

For `CN(C)c1nc(N)c(C(=O)NC(=N)N)nc1Cl` [DMA, dimethyl-amiloride], the Ki in assay [2] is 100 nM; in assay [1], 170 nM.

For `CCN(c1nc(N)c(C(=O)NC(=N)N)nc1Cl)C(C)C` [EIPA, 5N-(ethylisopropyl) amiloride], the results for the Ki in assay [2] and in assay [1] were 100 nM and 40 nM, respectively.

As for `Cc1cc(-n2cccc2)c(S(C)(=O)=O)cc1C(=O)NC(=N)N` [Eniporide, eniporide], the inhibitory constant (Ki) in assay [2] was 40 nM. In addition, in assay [1], the Ki is 2.5 nM, the “affinity to NHE7” value is recorded as “very good affinity” and the “selectivity of affinity NHE7 compare to NHE1” value was “selective to NHE7 compare to NHE1”.

As to `N=C(N)NC(=O)c1nc(Cl)c(N2CCCCCC2)nc1N` [HMA, hexamethyl-amiloride], the Ki in assay [2] is 20 nM; in assay [1], 80 nM.

As to `[Li+]` [Li^+, lithium], the Michaelis-Menten constant (Km) in assay [2] was 10 mM; in assay [3], 16 mM.

Consider `[Na+]` [Na^+, sodium], for which the Michaelis-Menten constant (Km) in assay [2] came out at 30 mM.

Regarding `N=C(N)NC(=O)c1cnn(-c2cccc3ncccc23)c1C1CC1` [Zoniporide, zoniporide], the Ki in assay [2] was 20 nM. Moreover, the “% of endocytosis” value in assay [4] was “dose-dependent effect”. For the same molecule, in assay [1], the Ki was 3 nM, the “affinity to NHE7” value was “very good affinity” and the “selectivity of affinity NHE7 compare to NHE1” value is given as “selective to NHE7 compare to NHE1”.
